Test results from publication PMC9862037, “Interactions of Mycotoxin Alternariol with Cytochrome P450 Enzymes and OATP Transporters” (Metabolites, 2022).

Columns and labels:
OATP1B1 [1] = target: T1, OATP1B1 (Homo sapiens, UniProt Q9Y6L6); test: cell-based; set-up: expressed in transfected cells; host or cells: A431; settings: A431-OATP1B1; pyranine 10 µM; pH 5.5; 15 min; read-out: IC50, OATP1B1 inhibition
Procedure: A431 cell lines overexpressing human OATPs (1A2, 1B1, 1B3, or 2B1) and their mock transfected controls were generated earlier. A431 cells expressed no or negligible OATPs compared to the overexpressing cell lines. Cells were cultured in Dulbecco’s modified Eagle medium (DMEM, Thermo Fisher Scientific, Waltham, MA, USA) with 10% fetal bovine serum, 2 mM L-glutamine, 100 U/mL penicillin, and 100 µg/mL streptomycin at 37 °C, with 5% CO2. OATP expression was regularly monitored (based on the transport activity of transfected cells), and the cells were used up to 20 passages.
Interaction between OATPs (1A2, 1B1, 1B3, and 2B1) and AOH was measured in an indirect transport assay with pyranine or sulforhodamine 101 as fluorescent probes. A431 cell overexpressing OATPs or their mock transfected controls were seeded on 96-well plates one day prior to the measurements in 200 µL DMEM in 8 × 10^4 cells/well density. […] Fluorescence was measured in an Enspire plate reader (Perkin Elmer, Waltham, MA, USA) in Ex/Em wavelengths 460/510 nm for pyranine and 586/605 nm for sulforhodamine 101. Bottom reading was applied with two horizontal (X) and two vertical (Y) points, measurement height was 3 mm with 200 flashes. IC50 values were calculated by sigmoidal fitting (Hill1), using the Origin (version 2018, OriginLab Corporation, Northampton, MA, USA) software.

CYP3A4 = target: T2, CYP3A4 (Homo sapiens, UniProt P08684); assay type: biochemical; settings: plateau above 10 μM AOH
T2 construct: purchased Merck; host or cells: yeast (inferred from the description of the CYPnull control, 'processed identically')
T2 sequence (P08684 whole entry): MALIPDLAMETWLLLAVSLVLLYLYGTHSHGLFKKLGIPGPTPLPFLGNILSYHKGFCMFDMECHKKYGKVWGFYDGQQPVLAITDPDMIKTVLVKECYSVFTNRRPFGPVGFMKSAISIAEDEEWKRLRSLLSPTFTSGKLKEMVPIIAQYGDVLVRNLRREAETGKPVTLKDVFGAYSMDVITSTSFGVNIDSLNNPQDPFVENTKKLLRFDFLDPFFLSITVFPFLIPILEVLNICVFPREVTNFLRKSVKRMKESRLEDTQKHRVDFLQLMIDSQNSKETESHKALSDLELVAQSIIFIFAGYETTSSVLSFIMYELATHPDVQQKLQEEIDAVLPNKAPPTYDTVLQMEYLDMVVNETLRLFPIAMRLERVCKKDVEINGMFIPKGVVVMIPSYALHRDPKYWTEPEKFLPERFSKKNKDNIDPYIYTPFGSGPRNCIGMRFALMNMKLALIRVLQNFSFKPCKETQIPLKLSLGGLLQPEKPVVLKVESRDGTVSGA
Procedure: The potential inhibitory effects of AOH on CYP2C9, 2C19, 2D6, and 3A4 enzymes were tested in vitro employing CypExpress human kits, using the substrates recommended by the U.S. Food and Drug Administration (FDA; https://www.fda.gov/drugs/drug-interactions-labeling/drug-development-and-drug-interactions-table-substrates-inhibitors-and-inducers; accessed on 19 December 2022) (diclofenac, S-mephenytoin, dextromethorphan, and testosterone, respectively). The impacts of increasing concentrations of AOH (0.00, 0.05, 0.50, 2.0, 5.0, 10, 25, 30, and 50 μM) were examined on diclofenac 4′-hydroxylation (CYP2C9), S-mephenytoin 4-hydroxylation (CYP2C19), dextromethorphan demethylation (CYP2D6), and testosterone 6β-hydroxylation (CYP3A4) as described previously, without modifications. In these assays, the substrates and products were quantified by HPLC-UV [28].
IC50 values were calculated by sigmoidal fitting (Hill1), using the Origin (version 2018, OriginLab Corporation, Northampton, MA, USA) software.
After CYP450 incubations, the product formation rate was investigated using an integrated HPLC system (Jasco, Tokyo, Japan) built up from an autosampler (AS-4050), a binary pump (PU-4180), and a UV detector (UV-975). Chromatographic data were evaluated employing ChromNAV2 software (Jasco, Tokyo, Japan). Quantitative determinations of 4′-hydroxydiclofenac and diclofenac (CYP2C9), 4-hydroxymephenytoin and mephenytoin (CYP2C19), dextromethorphan and dextrorphan (CYP2D6), as well as testosterone and 6β-hydroxytestosterone (CYP3A4) were carried out as previously reported, without modifications.

OATP1B1 [2] = target: T1, OATP1B1; assay type: cell-based; set-up: expressed in transfected cells; host or cells: A431; settings: 2, 5 or 10 µM AOH; 15 min; pH 5.5
Procedure: The A431 cell line overexpressing OATP1B1 or mock transfected control were trypsinized, and counted with automated cell counter (TC10, BIORAD, Hercules, CA, USA). The cells were washed with 1 mL buffer (pH 5.5; described above) and centrifuged for 5 min at 1500 g. After the supernatant was removed, 2 × 10^6 cells in 50 µL volume of the same buffer were handed out into separate Eppendorf tubes, then 50 µL of AOH solutions (diluted in buffer, pH 5.5) was added (final concentrations: 2, 5, or 10 µM). The cells were incubated for 15 min at 37 °C in shaking water bath. The reaction was stopped with 1 mL ice-cold PBS, after which the tubes were centrifuged for 5 min at 1500 g and 4 °C. The supernatant was removed, and the cells were washed with 1 mL ice-cold PBS, then the cell pellet was stored at −80 °C until analyses.
Before HPLC measurements, cell pellets were dissolved in 100 μL of 1 M NaOH solution with vigorous vortexing. After 15 min sonication, the solution was neutralized with 100 μL of 1 M HCl, then 200 μL acetonitrile was added. […] Thereafter, the supernatant was directly analyzed with HPLC-FLD (see details in Section 2.7).
To examine the OATP1B1-mediated uptake of AOH in A431 cells, our recently reported magnesium-sensitized HPLC-FLD method was applied. […] AOH was quantified using 345 nm and 455 nm excitation and emission wavelengths, respectively. […]

T1 sequence (Q9Y6L6 whole entry): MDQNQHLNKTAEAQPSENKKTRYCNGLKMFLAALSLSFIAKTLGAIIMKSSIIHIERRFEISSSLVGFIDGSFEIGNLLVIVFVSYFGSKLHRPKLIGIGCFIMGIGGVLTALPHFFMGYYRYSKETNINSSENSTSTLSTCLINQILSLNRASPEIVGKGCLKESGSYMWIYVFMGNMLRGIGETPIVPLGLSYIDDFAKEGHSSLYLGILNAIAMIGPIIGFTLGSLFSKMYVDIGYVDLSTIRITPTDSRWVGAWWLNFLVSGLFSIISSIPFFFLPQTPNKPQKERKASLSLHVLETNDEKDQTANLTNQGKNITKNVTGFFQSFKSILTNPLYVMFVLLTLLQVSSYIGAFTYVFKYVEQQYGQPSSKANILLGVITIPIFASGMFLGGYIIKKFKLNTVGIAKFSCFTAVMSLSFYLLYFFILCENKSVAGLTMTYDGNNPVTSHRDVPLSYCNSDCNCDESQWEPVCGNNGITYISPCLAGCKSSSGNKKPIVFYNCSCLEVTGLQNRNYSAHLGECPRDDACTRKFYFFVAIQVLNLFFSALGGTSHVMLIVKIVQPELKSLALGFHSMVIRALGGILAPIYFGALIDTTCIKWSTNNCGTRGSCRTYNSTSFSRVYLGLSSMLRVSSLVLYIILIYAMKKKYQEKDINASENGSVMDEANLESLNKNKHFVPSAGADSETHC

SMILES: Cc1cc(O)cc2oc(=O)c3c(O)cc(O)cc3c12 [AOH, Alternariol]
- IC50 (OATP1B1 [1]): 2000 nM
- CYP3A4 inhibition (decrease in metabolite formation) (CYP3A4): approximately 40%
- cellular AOH levels in OATP1B1 expressing vs mock cells (OATP1B1 [2]): higher cellular AOH levels
